Reference: patent publication US20090136460A1 (VANDERBILT UNIVERSITY, priority 2007, published 2009)
Where two headings read alike, the source gives them in different places.

Tests used:
[1] = target: T1, A1 receptors (Mus musculus, UniProt Q60612); experiment: Inhibition of forskolin-stimulated cAMP accumulation in mouse eEPCs; conditions: for Affinity or potency at A1, mouse (m), current study, log / Affinity or potency (Ki, KD, KB, IC50 or EC50) at A1, mouse (m), current study: data from the current study (no reference); for Affinity or potency (Ki, KD, KB, IC50 or EC50) at A1, mouse (m), current study: 95% CI in parentheses
T1 sequence (Q60612 1-326): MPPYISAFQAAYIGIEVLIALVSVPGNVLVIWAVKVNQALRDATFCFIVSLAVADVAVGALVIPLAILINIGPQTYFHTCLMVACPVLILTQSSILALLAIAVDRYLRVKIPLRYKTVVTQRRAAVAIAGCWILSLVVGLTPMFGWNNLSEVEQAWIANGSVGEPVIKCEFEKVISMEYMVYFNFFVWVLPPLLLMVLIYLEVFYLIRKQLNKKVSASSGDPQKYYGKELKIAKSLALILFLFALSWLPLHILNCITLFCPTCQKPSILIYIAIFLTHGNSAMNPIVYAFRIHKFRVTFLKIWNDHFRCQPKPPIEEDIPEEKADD

[2] = test system: eEPC adhesion to MCEC-1 cells; experiment: eEPC adhesion to MCEC-1 cells under static conditions; type: cell-based, mouse
[3] = target: T1, A1 receptors; experiment: Inhibition of forskolin-induced cAMP accumulation in MCEC-1 cells
[4] = target: T2, A1 adenosine receptor (Mus musculus, UniProt Q60612); conditions: cited from earlier work; for Ki: read-out: Affinity or potency at A1, mouse (m)
T2 sequence (Q60612 1-326): T1 sequence (Q60612 1-326)

[5] = target: A2A adenosine receptor (Mus musculus, UniProt Q60613); conditions: [9] Kreckler et al. (2006), transfected HEK 293, radioligand [125I]ZM241385, cited from earlier work
[6] = target: T3, A2B adenosine receptor (Mus musculus, UniProt Q60614); conditions: [9] Kreckler et al. (2006), transfected HEK 293, radioligand [3H]MRS1754, cited from earlier work
T3 sequence (Q60614 1-332): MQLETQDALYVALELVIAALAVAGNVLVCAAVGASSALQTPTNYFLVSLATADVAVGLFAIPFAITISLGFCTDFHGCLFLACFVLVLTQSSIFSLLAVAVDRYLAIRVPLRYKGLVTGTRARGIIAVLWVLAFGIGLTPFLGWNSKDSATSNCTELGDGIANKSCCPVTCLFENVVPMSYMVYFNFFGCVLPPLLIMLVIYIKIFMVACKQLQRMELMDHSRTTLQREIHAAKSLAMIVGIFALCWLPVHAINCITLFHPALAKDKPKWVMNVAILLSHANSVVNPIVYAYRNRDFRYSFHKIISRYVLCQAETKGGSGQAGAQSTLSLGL

[7] = target: T4, A2B adenosine receptor (Homo sapiens, UniProt P29275); conditions: [14] Feoktistov et al, 2001, transfected HEK 293 or HEL cells, radioligand [3H]ZM241685, cited from earlier work
T4 sequence (P29275 1-332): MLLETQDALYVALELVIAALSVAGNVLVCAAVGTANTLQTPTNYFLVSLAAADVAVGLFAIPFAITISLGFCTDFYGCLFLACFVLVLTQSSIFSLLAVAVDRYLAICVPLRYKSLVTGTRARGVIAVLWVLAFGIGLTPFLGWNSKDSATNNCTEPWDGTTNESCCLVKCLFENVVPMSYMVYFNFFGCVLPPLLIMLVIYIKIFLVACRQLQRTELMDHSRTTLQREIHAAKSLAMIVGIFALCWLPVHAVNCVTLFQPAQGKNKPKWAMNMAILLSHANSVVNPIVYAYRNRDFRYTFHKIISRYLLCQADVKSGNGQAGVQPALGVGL

[8] = target: A2A adenosine receptor (Homo sapiens, UniProt P29274); conditions: [14] Feoktistov et al, 2001, transfected CHO cells, radioligand [3H]NECA, cited from earlier work
[9] = target: T5, A2B receptors (Mus musculus, UniProt Q60614); experiment: NECA-stimulated cAMP accumulation in MCEC-1 cells
T5 sequence (Q60614 1-332): T3 sequence (Q60614 1-332)

[10] = target: T6, A1 adenosine receptor (Homo sapiens, UniProt P30542); conditions: [14] Feoktistov et al, 2001, transfected CHO cells, radioligand [3H]DPCPX, cited from earlier work
T6 sequence (P30542 1-326): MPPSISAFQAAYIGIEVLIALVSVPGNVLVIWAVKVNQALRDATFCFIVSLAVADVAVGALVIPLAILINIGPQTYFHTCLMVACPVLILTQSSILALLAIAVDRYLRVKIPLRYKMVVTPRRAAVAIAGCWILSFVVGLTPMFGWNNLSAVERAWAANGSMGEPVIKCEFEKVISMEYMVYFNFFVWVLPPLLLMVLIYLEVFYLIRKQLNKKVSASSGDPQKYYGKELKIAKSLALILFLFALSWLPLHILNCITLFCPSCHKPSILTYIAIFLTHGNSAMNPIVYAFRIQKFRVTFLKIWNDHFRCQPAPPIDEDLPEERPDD

[11] = test system: eEPCs; experiment: cAMP accumulation in mouse eEPCs (forskolin, NECA)
[12] = test system: eEPC retention in isolated hearts; experiment: eEPC retention in isolated mouse hearts (Langendorff perfusion)
Experimental: Isolated mouse heart model. Six male C57Bl/6 mice (Jackson Laboratory, Bar Harbor, Me.) at age of 6-8 weeks were used. The study was conducted in accordance with the Guide for the Care and Use of Laboratory Animals as adopted and promulgated by the U.S. National Institutes of Health. Hearts were rapidly removed from mice anesthetized with inhalation of isoflurane. The aorta was cannulated and connected to a Langendorff apparatus. […] After a 30 min stabilization period, hearts were perfused with 1.5 mmol/L FITC-conjugated Helix pomatia lectin (Sigma) for 10 min to label endothelial cells of perfused vessels followed by a 10 min washing period with KH buffer. […] After washing with KH buffer for 10 min to remove unbound eEPCs, hearts were dissected, and placed on a microscopic stage. Retention of eEPCs in hearts was analyzed by taking 10 random images of the left ventricle using epifluorescence microscopy (20× objective). Area of EPC-emitted fluorescence was measured using NIH ImageJ software and normalized to the area of vascular endothelium stained with FITC-lectin.

[13] = test system: HMVEC-c cells; experiment: cAMP accumulation in HMVEC-c cells; type: cell-based, human
Excerpt: Primary cultures of human cardiac microvascular endothelial cells (HMVEC-c) were obtained from Cambrex (Walkersville, Md.), and cultured using EGM™-2 MV growth medium (Cambrex). HMVEC-c from passages 2 to 5 were used. Measurement of cAMP accumulation.

[14] = [6] Maemoto et al. (1997), brain cortex, radioligand [3H]DPCPX
[15] = [9] Kreckler et al. (2006), transfected HEK 293, radioligand [125I]I-AB-MECA

Chain of A2A adenosine receptor (Homo sapiens, UniProt P29274) (P29274 whole entry): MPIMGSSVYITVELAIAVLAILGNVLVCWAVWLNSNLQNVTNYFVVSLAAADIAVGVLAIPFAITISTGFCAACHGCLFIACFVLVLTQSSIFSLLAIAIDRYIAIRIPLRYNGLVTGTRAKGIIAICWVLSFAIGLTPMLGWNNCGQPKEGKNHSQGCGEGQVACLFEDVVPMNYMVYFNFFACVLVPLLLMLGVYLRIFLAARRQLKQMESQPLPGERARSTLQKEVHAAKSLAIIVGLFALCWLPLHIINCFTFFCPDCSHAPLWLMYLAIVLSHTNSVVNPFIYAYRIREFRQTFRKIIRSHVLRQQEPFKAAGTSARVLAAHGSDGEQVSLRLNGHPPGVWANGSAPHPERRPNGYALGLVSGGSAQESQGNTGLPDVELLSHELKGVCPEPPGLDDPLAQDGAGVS
Chain of A2A adenosine receptor (Mus musculus, UniProt Q60613) (Q60613 whole entry): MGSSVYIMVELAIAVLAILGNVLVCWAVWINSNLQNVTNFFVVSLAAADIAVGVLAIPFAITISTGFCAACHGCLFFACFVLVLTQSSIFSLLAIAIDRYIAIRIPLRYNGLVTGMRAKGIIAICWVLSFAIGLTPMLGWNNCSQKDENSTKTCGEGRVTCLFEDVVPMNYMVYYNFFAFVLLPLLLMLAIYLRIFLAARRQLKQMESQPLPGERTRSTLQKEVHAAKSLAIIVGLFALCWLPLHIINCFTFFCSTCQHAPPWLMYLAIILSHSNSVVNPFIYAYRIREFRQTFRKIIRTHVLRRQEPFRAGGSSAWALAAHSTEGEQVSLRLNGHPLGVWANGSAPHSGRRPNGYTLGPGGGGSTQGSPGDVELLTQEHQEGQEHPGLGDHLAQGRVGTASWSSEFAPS

With Pertussis toxin the “Effect on ability of CPA to inhibit forskolin-stimulated adenylate cyclase” value ([1]; eEPCs preincubated with pertussis toxin for 12 hours) was “completely abrogated”, the “Effect on TNF-α-induced eEPC adhesion” value ([2]; eEPCs preincubated with pertussis toxin 12 hours) was “no effect” and the “Effect on stimulation of adhesion induced by NECA” value ([2]; eEPCs preincubated with pertussis toxin 12 hours, 10 μmol/L NECA) was “significantly attenuated but did not completely block”.
For Fucoidan, the “Effect on NECA-dependent stimulation of eEPC adhesion” value ([2]; 10 μmol/L NECA) was “inhibited”.
With `OC[C@H]1O[C@@H](n2cnc3c(NC4CCCC4)ncnc32)[C@H](O)[C@@H]1O` [CPA, N^6-cyclopentyladenosine] the EC50 [1] was 1.3 nM, the “Affinity or potency at A1, mouse (m), current study, log” value [1] was −8.9 log mol/L and the “Affinity or potency (Ki, KD, KB, IC50 or EC50) at A1, mouse (m), current study” value [1] was 1.2 (0.6-2.4) nmol/L. The “Concentrations at which inhibition was reversed” value ([3]; MCEC-1, presumably stimulation of A2B receptors) was > 100 nmol/L, the “Effect on forskolin-stimulated adenylate cyclase in MCEC-1” value ([3]; selective (low nanomolar) concentrations, 1 μmol/L forskolin) was “inhibited forskolin-stimulated adenylate cyclase” and the “Affinity or potency at A1, mouse (m), log” value [4, 14] was −8.5 log mol/L. For the same compound, the Ki [4, 14] was 3.3 nM and the eEPC adhesion ([2]; 10 nmol/L, 30 minutes, basal 4.5±0.3%) was 7.4±0.6%.
In the case of `CCCn1c(=O)c2[nH]c(C3CCCC3)nc2n(CCC)c1=O` [DPCPX, 8-cyclopentyl-1,3-dipropylxanthine], the “Affinity or potency at A2A, mouse (m), log” value [5] is listed as −6.2 log mol/L, the Ki ([5]; read-out: Affinity or potency at A2A, mouse (m)) is listed as 598 nM and the EC50 [1] is listed as 1.5 nM. For the same compound, the “Affinity or potency at A1, mouse (m), current study, log” value [1] was −8.8 log mol/L, the “Affinity or potency at A1, mouse (m), log” value [4, 14] was −9.3 log mol/L and the “Affinity or potency at A1, mouse (m), log” value [4, 15] was −8.8 log mol/L. The Ki [4, 14] was 0.4 nM, the Ki [4, 15] was 1.5 nM and the “Affinity or potency at A2B, mouse (m), log” value [6] was −7.1 log mol/L. The Ki ([6]; read-out: Affinity or potency at A2B, mouse (m)) was 86 nM.
For `CC(C)Cn1c(=O)[nH]c(=O)c2[nH]c(N3CCCC3)nc21` [IPDX, 3-isobutyl-8-pyrrolidinoxanthine], the “Affinity or potency at A2B, human (h), log” value [7] is given as −6.2 log mol/L, the Ki ([7]; read-out: Affinity or potency at A2B, human (h)) is given as 625 nM and the “Affinity or potency at A1, mouse (m), current study, log” value [1] is given as 24,870); −4.6 log mol/L. For the same compound, the “Affinity or potency (Ki, KD, KB, IC50 or EC50) at A1, mouse (m), current study” value [1] was “m 20,000 (16,230- nmol/L”, the “Affinity or potency at A2A, human (h), log” value [8] was −4.4 log mol/L and the Ki ([8]; read-out: Affinity or potency at A2A, human (h)) was 36000 nM. The Kd [9] was 603 nM, the Schild analysis slope ([9]; NECA-induced cAMP accumulation in MCEC-1, simple competitive antagonism at A2B) was 1.1 and the “Affinity or potency at A2B, mouse (m), current study, log” value ([9]; data from the current study (no reference)) was −6.2 log mol/L. For the same compound, the “Affinity or potency (Ki, KD, KB, IC50 or EC50) at A2B, mouse (m), current study” value ([9]; data from the current study (no reference), 95% CI in parentheses) was 603 nM, the “Affinity or potency at A1, human (h), log” value [10] was −4.6 log mol/L and the Ki ([10]; read-out: Affinity or potency at A1, human (h)) was 24000 nM. It also gave an IC50 ([2]; Mus musculus, read-out: IC50, inhibition of NECA-induced eEPC adhesion) of 1600 nM.
In the case of `C=C[C@@]1(C)CC(=O)[C@]2(O)[C@@]3(C)[C@@H](O)CCC(C)(C)[C@@H]3[C@H](O)[C@H](OC(C)=O)[C@@]2(C)O1` [Forskolin, forskolin], the EC50 ([11]; Mus musculus, read-out: EC50, increase of cAMP levels in eEPCs) is reported as 1100 nM and the “cAMP levels in eEPCs” value ([11]; maximal increase from basal 4.3±0.7) is reported as 35±2 pmol per well.
With `OC[C@H]1O[C@@H](n2cnc3c(O)ncnc32)[C@H](O)[C@@H]1O` [inosine] the “Effect on eEPC retention” value ([12]; 100 μmol/L) was “no effect”.
In the case of `CCNC(=O)[C@H]1O[C@@H](n2cnc3c(N)nc(NCCc4ccc(CCC(=O)O)cc4)nc32)[C@H](O)[C@@H]1O` [CGS21680, 4-((N-ethyl-5′-carbamoyladenos-2-yl)-aminoethyl)-phenyl-propionic acid], the “Effect on eEPC retention” value ([12]; 3 nmol/L, compared with 10 μmol/L adenosine) is listed as “considerably less effect”, the “Affinity or potency at A1, mouse (m), log” value [4, 14] is listed as 28,200); −4.85 [6] log mol/L and the “Effect on cAMP accumulation in HMVEC-c” value [13] is listed as “no significant effect”. For the same compound, the “Effect on eEPC adhesion” value ([2]; 30 minutes) was “virtually no effect”.
